Test results: patent US12596125B2, “Nano-rheological biomarkers for early and improved follow-up of pathologies associated to RBC deformability alteration” (ALCEDIAG, priority 2019, dated 2026)
“And” between values parts separate entries of the source, which are not always exact repeats. Equal values may be shown once.

How the values were obtained:
[1] = Sensitivity of rotor fluorescence to pH and ionic strength (NaCl); format: physicochemical; details: 37 °C, rotor 15 μM; for dependency of fluorescence intensity on NaCl concentration (ionic strength): NaCl 0.1-200 mM, water-glycerol 50%-50%; for dependency of fluorescence intensity on pH: pH 3-8, citric acid/phosphate, water-glycerol 70%-30%
Text: (§1) The fluorescent response spectra of the rotors has been measured by varying four parameters • Viscosity, with water-glycerol solutions with increasing relative concentration (see FIGS. 2A-2D); • Electrostatic and ionic perturbations, with increasing NaCl concentration in a water-glycerol solution (50%-50%) (see FIG. 3A)); • pH, with buffered solutions Citric acid/Phosphate pH; 3<pH<8 in a water-glycerol solution (70%-30%) (see FIG. 3B); and • Molecular density and highly interacting (including hydrophobic) environment using a gradient BSA (bovine serum albumin) (see FIG. 4A-4D).
(§2) The pH was assayed from 3 (corresponding to the most acidic zones) to 8. For viscosity, we used literature data agreeing on apparent values in various cellular media, ranging from 1.5 mPa·s in the cytoplasm up to 140 mPa·s in the vesicles. In our studies, the MR concentration was set to 15 μM under the expected toxicity onset [Haidekker (2010a)]. One key remark, as any fluorescent molecule, signal intensity is also a function of its concentration. It is therefore very important to control the concentration of molecular rotor or, if when impossible, to be able to measure the concentration regardless of the viscosity.

[2] = Fluorescence intensity as a function of viscosity (Förster-Hoffmann equation); format: physicochemical
Procedure: FIGS. 10a-10b: Emission peak intensity (fluorescence microscopy, excitation at 488 nm, emission 595±30 nm) of the molecular rotor DASPI at concentration 0.01 mM, 0.1 mM, 1 mM in (left) ethylene glycol/glycerol solutions and (right) aqueous glycerol solutions with increasing viscosity. The solutions temperature was fixed at T=X ° C. The fluorescence intensity increases with the solution viscosity according to the Förster-Hoffmann equation log φ=C+b log η, with solvent-dependent parameters b and C; Ethylene glycol/glycerol solutions: C=94,641,2206± and b=0.69±0.01 and aqueous glycerol solutions: C=74,344,1590± and b=0.70±0.01.
as §1, §2
The second step was to assess the sensitivity of DASPI to the local viscosity of the surrounding medium. More generally, fluorescent MRs photophysical sensitivity depends on their interaction with the environment, characterized by viscosity, polarity and solubility. […] Here we have investigated the DASPI emission intensity (fluorescence microscopy, excitation at 488 nm, emission at 595±30 nm) in ethylene glycol/glycerol solutions (viscosity between 10-200 mPa·s) and aqueous solutions of glycerol (viscosity between 2-200 mPa·s). In each solution, the relative concentration of both solvents was varied to adjust the viscosity of the resulting mixture, at temperature T=X° C. The viscosity was measured in situ by microrheology measurements, just before fluorescence intensity measurements. […]

red blood cells (RBCs) [3] = test: Fluorescence of rotor in healthy and glutaraldehyde-stiffened red blood cells (confocal / epi-fluorescence microscopy); format: cell-based; details: glutaraldehyde 0-2% per volume of cells; 0.4 mM rotor, 1 hour; excitation 488 nm, detection 565-625 nm
Procedure: FIG. 6: Left: Suspension of healthy red blood cells and red blood cells stiffened with glutaraldehyde, in a PBS solution, using confocal microscopy (×40 objective, excitation at 488 nm, detection between 542-626 nm). The molecular rotor tDASMP was introduced into the solution according the protocol described in Example 2.
As a next step towards the rheological characterization of RBCs with MRs, we then imaged a suspension of healthy and artificially rigidified RBCs (by incubation during 10 min in a 1% (v/v) Glutaraldehyde solution in PBS) treated with tDASMP. […] Confocal microscopy allows to measure fluorescence profiles across RBCs.
In a second step, a quantification of the fluorescence response as a function of the degree of rigidification of RBCs can be performed. […]
For visualization, samples were placed between a glass slide and coverslip separated by a 250 μm spacer and initially incubated in a PBS solution supplemented with 1% BSA (Bovine Serum Albumin, Sigma-Aldrich) to prevent RBC adhesion. Observation was made with a Leica microscope in epi-fluorescence mode with excitation at 488 nm and detection at 565-625 nm. Images recorded with a sCMOS fast camera (OrcaFlash4.0 v2+, Hamamatsu Photonics France S.A.R.L., Massy, France) allowed to measure the mean fluorescence intensity of RBCs rescaled by the background fluorescence level.

red blood cells (RBCs) [4] = test: Penetration and localization of molecular rotor in red blood cells by confocal microscopy; format: cell-based; details: for penetration of the rotor into RBCs: healthy and rigidified RBCs
Procedure: FIG. 12: Bright field image and confocal z-stacks obtained using confocal microscopy (X40 objective, excitation at 488 nm, detection between 542-626 nm) for three healthy RBCs with different orientations in a 1 mM DASPI solution. The z position of the slices is indicated. […] The mean intensity was measured in the depicted color boxes and each data point corresponds to a confocal slice (0.5 μm distance). As a next step towards the rheological characterization of RBCs with MRs, we then imaged a suspension of healthy and artificially rigidified RBCs (by incubation during 10 min in a 1% (v/v) Glutaraldehyde solution in PBS) treated with […]. Healthy and rigidified RBC suspensions were mixed and the resulting suspension was observed using confocal microscopy with an excitation at 488 nm and detection between 546 nm and 626 nm. An image corresponding to the mid-cross section of the RBC after cells have sedimented on the bottom window of the observation chamber is shown in FIG. 6. […] Confocal microscopy allows to measure fluorescence profiles across RBCs. The localization of the DASPI molecular rotor in healthy red blood cells was studied by confocal microscopy. Confocal images were acquired during the slow sedimentation of the RBCs with different orientations in the observation microchannel. […] Beyond the membrane, in the cytosol, the signal from DASPI was homogeneous in the observation plane, regardless of the z-position and orientation of the cell. Confocal microscopy allows us to unambiguously separate the fluorescence response from the membrane and cytosol. In fact, as soon as the upper and lower membranes are out of the depth of field ( 600 nm), they no longer contribute to the field of vision. […] By scanning the different parts of the red blood cells, we measure that the DASPI fluorescence signal is present throughout the whole red blood cell, over a distance which corresponds approximately (given the depth of field) to the typical known sizes of the red blood cell: diameter 8 μm (b), thickness on the edge 3 μm (a), thickness in the biconcave zone 1 μm (a).

[5] = Excitation-emission matrix (spectral response) of molecular rotors; format: physicochemical
Procedure: Excitation wavelength in abscissa, emission in ordinates, in nanometer (nm)). The rotors are diluted in a water/glycerol solution at a concentration 15 μM.
FIGS. 9a-9f: Excitation emission matrices of the molecular rotor DASPI, at temperature 25° C., at concentration 3.3 μM in (a) DMSO (η=2 mPa·s), (b) Ethylene glycol (η=13.5 mPa·s), (c) Glycerol (η=945 mPa·s) and (d,e) Hemoglobin in PBS (1000× dilution, different scale, η=1 mPa·s). The Fluorescence EEM of hemoglobin alone (f) was also measured to give evidence that there is no contribution of hemoglobin in the DASPI range of interest. […] In hemoglobin solutions however (d,e), the emission peak value is lower than in DMSO for similar viscosities because of the high absorbance of the solution.
The excitation-emission matrix of these 4 rotors, diluted in a glycerol/water solution (purely viscous fluid), have been measured using a SYNERGY H1 (Hybrid Multi-Mode reader, BioTek).
In a first step, fluorescence Excitation Emisson Matrices (EMMs) of DASPI were measured in selected solvents, at controlled temperature 25·C: DMSO, Ethylene Glycol, Glycerol and hemoglobin/PBS solutions (dilution 1000×). […] The Fluorescence EEM of hemoglobin alone (dilution 1000× in PBS) was also measured in the DASPI range of interest to give evidence that there is no contribution of hemoglobin in this range (f).

hemoglobin solutions = target: T1, hemoglobin solutions (Homo sapiens, UniProt P68871+P69905); test: Emission intensity of rotor in hemoglobin solutions of increasing viscosity; format: physicochemical; details: viscosity 3.4-9.2 mPa·s, temperature 17-34 °C
T1 construct: The RBC pellet was exposed to 3 freeze-thaw cycles (−80° C. to 37° C.) to lyse RBC membranes; from tissue; host or cells: red blood cells from blood samples (lysate, membranes extracted with CCl4)
Procedure: Red blood cells were washed three times in PBS buffer in order to prepare hemoglobin solutions from blood samples. After a final centrifugation at 1200 g for 10 min, all the supernatant was removed. The RBC pellet was exposed to 3 freeze-thaw cycles (−80° C. to 37° C.) to lyse RBC membranes. Membrane residues were then extracted by addition of CCl4 to the lysate (⅓ of the volume), strong agitation and ultra-centrifugation at 10000 g for 15 min. The hemoglobin concentration in the final solution was measured by colorimetry (MAK 115 Hemoglobin Assay Kit from Sigma-Aldrich).
We studied the emission intensity of tDASMP in hemoglobin solutions of increasing viscosity. The temperature of the sample was varied between 17° C. and 34° C.

T1 sequence (P69905 2-142 limits assumed): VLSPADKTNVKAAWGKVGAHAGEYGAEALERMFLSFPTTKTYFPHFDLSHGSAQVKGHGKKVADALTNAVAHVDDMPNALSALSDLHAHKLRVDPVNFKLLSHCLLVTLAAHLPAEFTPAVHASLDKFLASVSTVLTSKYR
T1 sequence (P68871 2-147 limits assumed): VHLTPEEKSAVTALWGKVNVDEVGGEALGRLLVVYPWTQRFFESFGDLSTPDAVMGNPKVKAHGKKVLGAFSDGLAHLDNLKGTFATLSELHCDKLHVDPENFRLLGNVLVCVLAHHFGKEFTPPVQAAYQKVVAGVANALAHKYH

N#CC(C#N)=Cc1cc2c3c(c1)CCCN3CCC2 [DCVJ, Dicyanovinyl-Julolidine]
dependency of fluorescence intensity on NaCl concentration (ionic strength) [1]: no significant dependency
dependency of fluorescence intensity on pH [1]: no significant dependency

N#C/C(=C\c1cc2c3c(c1)CCCN3CCC2)C(=O)O [CCVJ, Carboxycyanovinyl-Julolidine]
dependency of fluorescence intensity on NaCl concentration (ionic strength) [1]: no significant dependency
dependency of fluorescence intensity on pH [1]: no significant dependency

CN(C)c1ccc(C=Cc2cc[n+](C)cc2)cc1.[I-] [tDASMP, trans-4-[4-(Dimethylamino)styryl]-1-methylpyridinium iodide]
Förster-Hoffmann exponent b ([2]; aqueous glycerol solutions, excitation 488 nm, emission 595±30 nm): 0.70±0.01
Förster-Hoffmann exponent b ([2]; both ethylene glycol/glycerol and glycerol/water solutions): around 0.7
Förster-Hoffmann exponent b ([2]; ethylene glycol/glycerol solutions, excitation 488 nm, emission 595±30 nm): 0.69±0.01
mean fluorescence intensity of RBCs versus RBC rigidity (red blood cells (RBCs) [3]): increasing function of RBC rigidity
dependency of fluorescence intensity on NaCl concentration (ionic strength) [1]: no significant dependency
dependency of fluorescence intensity on pH [1]: no significant dependency
distribution of the rotor inside RBCs (red blood cells (RBCs) [4]): uniformly distributed throughout the volume of RBCs
penetration of the rotor into RBCs (red blood cells (RBCs) [4]): able to cross the membrane and penetrate within the RBCs
penetration of the rotor into RBCs (red blood cells (RBCs) [4]; listed as DASPI): spontaneously penetrates into red blood cells
fluorescence excitation peak ([5]; DMSO, ethylene glycol, glycerol, hemoglobin/PBS, 25 °C, 3.3 μM): around 480 nm
interference of excitation-emission spectrum with hemoglobin fluorescence ([5]; hemoglobin in PBS, 1000× dilution): does not interfere with the intrinsic hemoglobin fluorescent spectrum
emission ([5]; rotor of Examples 1-2): 580-620 nm
excitation peak ([5]; rotor of Examples 1-2): around 490 nm
fluorescence emission intensity versus viscosity of hemoglobin solutions (hemoglobin solutions): increase in fluorescence emission intensity

Cc1ccc2c(c1)sc(-c1ccc(N(C)C)cc1)[n+]2C.[Cl-] [Tht, Thioflavine T]
excitation/emission peak following the Förster-Hoffmann equation ([2]; water-glycerol solutions, viscosity 1-200 mPa·s): 430/490
dependency of fluorescence intensity on NaCl concentration (ionic strength) [1]: no significant dependency
dependency of fluorescence intensity on pH [1]: no significant dependency
excitation/emission peaks ([5]; water/glycerol solution, rotor 15 μM): around 380/440 and 430/490
